# Results as given in patent US12565687B2, “Glucose in solid form and process for manufacturing glucose in solid form” (CARGILL, INCORPORATED, priority 2021, dated 2026).
# Assay: Dissolution speed test in distilled water
# Assay type: physicochemical
# Conditions: 1.5 g solid, particle sizes 425-600 μm, stirred in distilled water at ambient temperature
# Protocol: Dissolution speed tests of the produced semi-crystalline particles were performed by comparison with the dissolution speed of pure crystalline glucose i.e. glucose monohydrate. Two comparative runs were carried out by using an initial mass of 1.5 g of solid inventive semi-crystalline glucose particles vs. crystalline glucose monohydrate, both having particle sizes in the range of 425-600 μm. The solid was stirred in a cylindrical vessel with distilled water at ambient temperature. In both the runs the solid disappearance was detected after 25 s, showing an equal dissolution speed of the produced semi-crystalline glucose in comparison to the crystalline glucose monohydrate.
smiles,measurement,value
"O.O=C[C@H](O)[C@@H](O)[C@H](O)[C@H](O)CO [crystalline glucose monohydrate, glucose monohydrate]",time until solid disappearance was detected (dissolution speed),25 s
